In patent publication US8426448B2, “1,5-diphenyl-pyrrolidin-2-one compounds as CB-1 ligands” (Eli Lilly and Company, priority 2008, dated 2013):
Counter-ions that a name gives are not always drawn.

Legend:
hCB-2 = target: T1, hCB-2 (Homo sapiens, UniProt P34972); experiment: hCB2-Sf9 antagonist mode SPA GTP-γ-35S binding assay; type: biochemical; settings: antagonist mode vs methanandamide; read-out: hCB-2 SPA GTPγS Sf9 Membrane Antagonist Kb
T1 construct: purchased Perkin Elmer, Boston, Mass; host or cells: Sf9 cell membranes
T1 sequence (P34972 whole entry): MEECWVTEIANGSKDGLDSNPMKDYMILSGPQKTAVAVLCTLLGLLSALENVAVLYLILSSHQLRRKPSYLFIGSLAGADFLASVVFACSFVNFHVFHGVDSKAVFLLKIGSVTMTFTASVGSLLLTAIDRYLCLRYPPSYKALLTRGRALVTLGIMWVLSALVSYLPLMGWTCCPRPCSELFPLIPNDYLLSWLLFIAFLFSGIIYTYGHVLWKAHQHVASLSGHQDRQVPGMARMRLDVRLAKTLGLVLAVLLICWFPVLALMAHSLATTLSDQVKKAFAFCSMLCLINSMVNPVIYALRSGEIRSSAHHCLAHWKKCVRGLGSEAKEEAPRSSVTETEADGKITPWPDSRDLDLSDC
Method: Compounds of the present invention may be tested for functional activity at the CB-1 and CB-2 receptors in both agonist and antagonist modes using SPA (Scintillation Proximity Assay) based GTP-γ-^35S binding assays. All assay components are prepared in assay buffer (20 mM HEPES, 100 mM NaCl, 5 mM MgCl2, pH 7.4) at room temperature. Semi-log dilutions of test compound are prepared in assay buffer containing BSA (0.125% final conc.) for the agonist mode assays. For the antagonist mode assays, test compounds are prepared in the same manner but also include an 80% efficacious dose of a full agonist (methanandamide). GTP-γ^35S binding for the antagonist assay may be measured in a 96 well format using a modification of an antibody capture technique previously described. (DeLapp, N W, et al. (1999) J Pharmacol Exp Ther 289:946-955.) The CB-2 receptor agonist activity may be measured using a similar method using hCB2-Sf9 membranes. The CB-1 receptor agonist activity may be measured using a whole membrane capture technique using hCB1-CHO membranes. All incubations are done at room temperature. […]
Data are analyzed as follows: Background is subtracted from all wells. […] Percent antagonist inhibition is calculated by first normalizing the data to the signal generated by a saturating concentration of the full agonist (methanandamide). Then the data are analyzed using a 4-parameter logistic reduced fit (Activity Base™ and XLFit3™ from IDBS, Emeryville, Calif.). Kb values are determined using a modification of the Cheng-Prusoff relationship: Kb=IC50/(1+[agonist]/EC50), where “IC50” is determined from a four parameter fit of displacement curves, “[agonist]” is the agonist challenge concentration (nM), and “EC50” is determined from a four parameter fit of a full agonist concentration response curve (Cheng and Prusoff 1973). Mean Kb values are calculated as a mean of at least three independent determinations±standard error of the mean (SEM). […]

CYP3A = experiment: Human CYP fingerprinting, ketoconazole inhibition; type: in vitro ADME; settings: 4 μM, human liver microsomes, 30 min, 10 μM ketoconazole
Method: CYP fingerprinting is well established technique and is used as an indication of potential risk of drug-drug interactions in the pharmaceutical sciences. Compounds of the present invention may be assayed by well known methods, essentially as follows: Compounds are incubated at 37° C. at a final concentration of 4 μM with pooled, mixed gender, human liver microsomes and 1 mM NADPH (Nicotine Adenine Dinucleotide Phosphate) (final conc.) for 0 and 30 min. without any CYP inhibitor and with each CYP inhibitor in separate incubations for 30 min. Each inhibitor is specific for an individual cytochrome P450. The specific inhibitors used for CYPs 2C9, 2D6 and 3A were sulfaphenazole, quinidine and ketoconazole, respectively. Ketoconazole (CYP3A) is made up at 25 mM in DMSO and then diluted in buffer to a final concentration of 10 μM. Quinidine (CYP2D6) is made up at 5 mM in 50/50 acetonitrile/water and then diluted in buffer to a final concentration of 10 μM. Sulfaphenazole (CYP2C9) is made up at 100 mM in DMSO and then diluted in buffer to a final concentration of 5 μM. Samples are analyzed by LC-MS in positive or negative electrospray mode using a Waters Acquity Ultra Performance LC coupled to a MicroMass Q-T of-2 mass spectrometer.
Data are analyzed using MetaboLynx™ version 4.1. […]

Rat oral bioavailability = type: in vivo; settings: Sprague-Dawley, plasma, fasted male SD rats, IV 0.25 mg/kg (20% Pharmasolve, 10% HPBCD, pH 3), PO 1 mg/kg (1% CMC, 0.5% SLS, 0.5% AF), mean±s.d, n=3, based on AUC0-∞
Method: Cohorts of three or four 250-450 gram male Sprague-Dawley rats or approximately 10 kg Beagle dogs (female or male) are used. […] Dogs are administered i.v. by cannulated cephalic vein and blood collections are by jugular vein. Animals are first dosed at 0.25 mg/kg i.v. and blood samples (0.2 mL) are then collected using EDTA as an anticoagulant at 0.0830, 0.25, 0.50, 1, 2, 4, 8, 12, 24, 48, 72, 96, and 120 hours. Next after at least two days and after 18-24 hours fasting, the animals are dosed at 1.0 mg/kg by oral gavage. During the course of a study the total of blood (ml) collected is not to exceed 1% of total body weight in grams. Should larger blood volumes be required, the sampled blood volume is replace with heparinized whole blood from a donor animal. When using a cross-over study design, rats receive a volume of heparinized whole blood following the final sample of each study day approximately equal to that removed during study.
Compound plasma concentrations are measured by LC/MS/MS assays. Data are then analyzed using standard non-compartmental pharmacokinetic analysis. Oral bioavailability is calculated as: (AUC0-infinity,oral/AUC0-infinity,i.v.)×(Dose,i.v./Dose,oral)×100%

Kb (hCB-2): > 9.09 µM
Risk of Drug Drug Interaction (DDI) CYP3A (CYP3A): Low
bioavailability (Rat oral bioavailability): 40 ± 6%
Structure (SMILES): CC(C)(N[C@@H]1C[C@H](c2cccc(C(F)(F)F)c2)N(c2ccc(OC(F)(F)F)cc2)C1=O)c1cccc(C(F)(F)F)n1 [28 HCl salt, (3R,5R)-3-[1-methyl-1-(6-trifluoromethyl-pyridin-2-yl)-ethylamino]-1-(4-trifluoromethoxy-phenyl)-5-(3-trifluoromethyl-phenyl)-pyrrolidin-2-one]
